{
  "source": "patent US20260345619A1",
  "about": "(Principia Biopharma Inc., priority 2023, published 2026)",
  "experiment": "Loss of asthma control (LOAC) events, 12-week ICS/LABA withdrawal study",
  "type": "in vivo, human",
  "details": "for RD vs. Placebo / LOAC, number / OR vs. placebo: 400 mg BID",
  "from_the_text": "The general construct of this 12-week Loss of Asthma Control (LOAC) study consisted of a 4-week standardized ICS/LABA background therapy stabilization phase, a 4or 5-week background therapy withdrawal phase and a 3- or 4-week no background therapy phase, followed by a 4-week post IMP treatment safety follow-up period at the beginning of which, pre-screening asthma controller medications are restarted. Participants had access to short-acting β-agonist (SABA) reliever medication at all times during the protocol.\nThe primary endpoint was the proportion of patients with LOAC. The key secondary endpoint for the study was change in pre-bronchodilator FEV1 from baseline at EOT.\nThe primary endpoint was proportion of participants with LOAC during the 12-week treatment period.\nNote that if the number of participants in some regions was too low, these regions may have been pooled with other regions. This strategy also applied to all the rest of the analyses where region was one of the covariates.\nTo assess the consistency in treatment effects across different subgroup levels, subgroup analyses were to be performed for the primary efficacy endpoint with respect to age group, gender, region, and other factors.\nSecondary endpoints included pre-bronchodilator FEV1 change from baseline at EOT, ACQ-5 score change from baseline, and AQLQ score change from baseline. Other secondary and exploratory endpoints are described in Table 2.",
  "key": {"[1]": {"details": "all others than low EOS and low FeNO"}, "[2]": {"details": "background ICS/LABA dose Medium"}, "[3]": {"details": "baseline IgA <Median (2600) IU/mL"}, "[4]": {"details": "baseline IgA ≥Median (2600) IU/mL"}, "[5]": {"details": "baseline IgE <Median (210.8) IU/mL"}, "[6]": {"details": "baseline IgE ≥Median (210.8) IU/mL"}, "[7]": {"details": "baseline percent predicted FEV1 <Median (68)"}, "[8]": {"details": "baseline percent predicted FEV1 ≥ Median (68)"}, "[9]": {"details": "baseline pre-BD FEV1 <Median (2.022) L"}, "[10]": {"details": "baseline pre-BD FEV1 ≥Median (2.022) L"}, "[11]": {"details": "blood eosinophil level 1 <0.15 (10^9/L)"}, "[12]": {"details": "blood eosinophil level 1 ≥0.15 (10^9/L)"}, "[13]": {"details": "blood eosinophil level 2 <0.3 (10^9/L)"}, "[14]": {"details": "blood eosinophil level 2 ≥0.3 (10^9/L)"}, "[15]": {"details": "400 mg TID cohort, Eastern Europe, n = 43"}, "[16]": {"details": "400 mg TID cohort, Latin America, n = 19"}},
  "data": [
    {"molecule": "CC(C)(C=C(C#N)C(=O)N1CCC[C@@H](n2nc(-c3ccc(Oc4ccccc4)cc3F)c3c(N)ncnc32)C1)N1CCN(C2COC2)CC1", "note": "(mixture of isomers) [rilzabrutinib, (R)-2-[3-[4-amino-3-(2-fluoro-4-phenoxy-phenyl)pyrazolo[3,4-d]pyrimidin-1-yl]piperidine-1-carbonyl]-4-methyl-4-[4-(oxetan-3-yl)piperazin-1-yl]pent-2-enenitrile]", "values": [
      {"measurement": "RD vs. Placebo", "setting": "age at onset ≥18-<40 years", "value": "−0.314"},
      {"measurement": "LOAC, number", "setting": "age at onset ≥18 years", "value": 7},
      {"measurement": "OR vs. placebo", "setting": "age at onset ≥18 years", "value": 0.323},
      {"measurement": "RD vs. Placebo", "setting": "age at onset ≥18 years", "value": "−0.258"},
      {"measurement": "LOAC, number", "setting": "age at onset ≥40 years", "value": 3},
      {"measurement": "OR vs. placebo", "setting": "age at onset ≥40 years", "value": 3.000},
      {"measurement": "RD vs. Placebo", "setting": "age at onset ≥40 years", "value": 0.250},
      {"measurement": "LOAC, number", "setting": "[1]", "value": 12},
      {"measurement": "OR vs. placebo", "setting": "[1]", "value": 0.808},
      {"measurement": "RD vs. Placebo", "setting": "[1]", "value": "−0.053"},
      {"measurement": "LOAC, number", "setting": "atopic medical conditions: No", "value": 4},
      {"measurement": "OR vs. placebo", "setting": "atopic medical conditions: No", "value": 0.380},
      {"measurement": "RD vs. Placebo", "setting": "atopic medical conditions: No", "value": "−0.204"},
      {"measurement": "LOAC, number", "setting": "atopic medical conditions: Yes", "value": 8},
      {"measurement": "OR vs. placebo", "setting": "atopic medical conditions: Yes", "value": 0.681},
      {"measurement": "RD vs. Placebo", "setting": "atopic medical conditions: Yes", "value": "−0.069"},
      {"measurement": "LOAC, number", "setting": "background ICS/LABA dose High", "value": 11},
      {"measurement": "OR vs. placebo", "setting": "background ICS/LABA dose High", "value": 0.737},
      {"measurement": "RD vs. Placebo", "setting": "background ICS/LABA dose High", "value": "−0.075"},
      {"measurement": "LOAC, number", "setting": "[2]", "value": 1},
      {"measurement": "RD vs. Placebo", "setting": "[2]", "value": "−0.467"},
      {"measurement": "OR vs. placebo", "setting": "baseline ACQ-5 >2", "value": 0.475},
      {"measurement": "LOAC, number", "setting": "baseline ACQ-5 ≤2", "value": 7},
      {"measurement": "OR vs. placebo", "setting": "baseline ACQ-5 ≤2", "value": 0.651},
      {"measurement": "RD vs. Placebo", "setting": "baseline ACQ-5 ≤2", "value": "−0.098"},
      {"measurement": "LOAC, number", "setting": "baseline FeNO level 1 <25 ppb", "value": 3},
      {"measurement": "OR vs. placebo", "setting": "baseline FeNO level 1 <25 ppb", "value": 0.261},
      {"measurement": "RD vs. Placebo", "setting": "baseline FeNO level 1 <25 ppb", "value": "−0.227"},
      {"measurement": "LOAC, number", "setting": "baseline FeNO level 1 ≥25 ppb", "value": 9},
      {"measurement": "OR vs. placebo", "setting": "baseline FeNO level 1 ≥25 ppb", "value": 0.946},
      {"measurement": "RD vs. Placebo", "setting": "baseline FeNO level 1 ≥25 ppb", "value": "−0.007"},
      {"measurement": "LOAC, number", "setting": "baseline FeNO level 2 <35 ppb", "value": 8},
      {"measurement": "OR vs. placebo", "setting": "baseline FeNO level 2 <35 ppb", "value": 0.448},
      {"measurement": "RD vs. Placebo", "setting": "baseline FeNO level 2 <35 ppb", "value": "−0.198"},
      {"measurement": "LOAC, number", "setting": "baseline FeNO level 2 ≥35 ppb", "value": 4},
      {"measurement": "OR vs. placebo", "setting": "baseline FeNO level 2 ≥35 ppb", "value": 0.800},
      {"measurement": "RD vs. Placebo", "setting": "baseline FeNO level 2 ≥35 ppb", "value": "−0.053"},
      {"measurement": "LOAC, number", "setting": "[3]", "value": 4},
      {"measurement": "OR vs. placebo", "setting": "[3]", "value": 0.205},
      {"measurement": "RD vs. Placebo", "setting": "[3]", "value": "−0.365"},
      {"measurement": "LOAC, number", "setting": "[4]", "value": 8},
      {"measurement": "OR vs. placebo", "setting": "[4]", "value": 1.633},
      {"measurement": "RD vs. Placebo", "setting": "[4]", "value": 0.122},
      {"measurement": "LOAC, number", "setting": "baseline IgE <100 IU/mL", "value": 2},
      {"measurement": "OR vs. placebo", "setting": "baseline IgE <100 IU/mL", "value": 0.412},
      {"measurement": "RD vs. Placebo", "setting": "baseline IgE <100 IU/mL", "value": "−0.220"},
      {"measurement": "LOAC, number", "setting": "[5]", "value": 6},
      {"measurement": "OR vs. placebo", "setting": "[5]", "value": 0.744},
      {"measurement": "RD vs. Placebo", "setting": "[5]", "value": "−0.053"},
      {"measurement": "LOAC, number", "setting": "baseline IgE ≥100 IU/mL", "value": 10},
      {"measurement": "OR vs. placebo", "setting": "baseline IgE ≥100 IU/mL", "value": 0.652},
      {"measurement": "RD vs. Placebo", "setting": "baseline IgE ≥100 IU/mL", "value": "−0.092"},
      {"measurement": "LOAC, number", "setting": "[6]", "value": 6},
      {"measurement": "OR vs. placebo", "setting": "[6]", "value": 0.604},
      {"measurement": "RD vs. Placebo", "setting": "[6]", "value": "−0.124"},
      {"measurement": "LOAC, number", "setting": "[7]", "value": 7},
      {"measurement": "OR vs. placebo", "setting": "[7]", "value": 0.700},
      {"measurement": "RD vs. Placebo", "setting": "[7]", "value": "−0.088"},
      {"measurement": "OR vs. placebo", "setting": "[8]", "value": 0.556},
      {"measurement": "RD vs. Placebo", "setting": "[8]", "value": "−0.143"},
      {"measurement": "LOAC, number", "setting": "[9]", "value": 7},
      {"measurement": "OR vs. placebo", "setting": "[9]", "value": 0.700},
      {"measurement": "RD vs. Placebo", "setting": "[9]", "value": "−0.088"},
      {"measurement": "OR vs. placebo", "setting": "[10]", "value": 0.556},
      {"measurement": "RD vs. Placebo", "setting": "[10]", "value": "−0.143"},
      {"measurement": "LOAC, number", "setting": "[11]", "value": 2},
      {"measurement": "OR vs. placebo", "setting": "[11]", "value": 0.527},
      {"measurement": "RD vs. Placebo", "setting": "[11]", "value": "−0.135"},
      {"measurement": "LOAC, number", "setting": "[12]", "value": 10},
      {"measurement": "OR vs. placebo", "setting": "[12]", "value": 0.737},
      {"measurement": "RD vs. Placebo", "setting": "[12]", "value": "−0.077"},
      {"measurement": "OR vs. placebo", "setting": "[13]", "value": 0.231},
      {"measurement": "RD vs. Placebo", "setting": "[13]", "value": "−0.197"},
      {"measurement": "LOAC, number", "setting": "[14]", "value": 7},
      {"measurement": "OR vs. placebo", "setting": "[14]", "value": 0.951},
      {"measurement": "RD vs. Placebo", "setting": "[14]", "value": "−0.013"},
      {"measurement": "LOAC, number", "setting": "low EOS (<0.15) and low FeNO (<25)", "value": 0},
      {"measurement": "LOAC, number", "setting": "smoking history Former", "value": 3},
      {"measurement": "OR vs. placebo", "setting": "smoking history Former", "value": 3.000},
      {"measurement": "RD vs. Placebo", "setting": "smoking history Former", "value": 0.250},
      {"measurement": "LOAC, number", "setting": "smoking history Never", "value": 9},
      {"measurement": "OR vs. placebo", "setting": "smoking history Never", "value": 0.474},
      {"measurement": "RD vs. Placebo", "setting": "smoking history Never", "value": "−0.179"},
      {"measurement": "LOAC incidence, number of participants", "setting": "[15]", "value": 8},
      {"measurement": "LOAC incidence, percentage", "setting": "[15]", "value": "(18.6)"},
      {"measurement": "LOAC OR vs. placebo", "setting": "400 mg TID cohort, Eastern Europe, 95% CI (0.187, 1.368)", "value": 0.506},
      {"measurement": "LOAC incidence, number of participants", "setting": "[16]", "value": 4},
      {"measurement": "LOAC incidence, percentage", "setting": "[16]", "value": "(21.1)"},
      {"measurement": "LOAC OR vs. placebo", "setting": "400 mg TID cohort, Latin America, 95% CI (0.166, 3.357)", "value": 0.747},
      {"measurement": "LOAC RD vs. placebo", "setting": "400 mg TID cohort, Latin America, 95% CI (−0.322, 0.217)", "value": "−0.053"}
    ]}
  ]
}
